Test system: patients with recurrent or refractory AML
Experiment: AML dose-escalation study: safety and tolerability (AEs, DLTs)
Assay type: in vivo, human
Source text: Conducted at three centres in the USA and one in Canada. Dose escalation followed a conventional 3 + 3 design. […] In the first cohort, dosing between the first and subsequent patients was staggered with a 7-day interval. Dose-escalation decisions were based on the safety and tolerability data from ≥3 evaluable patients (or six if one of the first three patients experienced a dose-limiting toxicity [DLT]).
AZD1208 could be escalated by up to 100% in subsequent cohorts until one DLT was observed, after which succeeding doses were escalated by up to 50%.
In the case of a DLT, the cohort was expanded to six patients. If a DLT occurred in ≥2 patients within a cohort, the dose was determined to be a non-tolerated dose (NTD) and dose escalation was stopped.
Grade 3 or 4 toxicities not attributable to the disease or disease-related processes under investigation, and occurring before the end of Cycle 1, were considered DLTs.
The NTD was identified as the dose at which ≥2 DLTs occurred in a given cohort.

## N[C@@H]1CCCN(c2c(/C=C3\SC(=O)NC3=O)cccc2-c2ccccc2)C1 [AZD1208]
700 mg, n = 7
  Hyperglycaemia (all-grade AE): 1 (14.3) n (%)
  Hypocalcaemia (all-grade AE): 3 (42.9) n (%)
  Hypokalaemia (all-grade AE): 2 (28.6) n (%)
  Hypomagnesaemia (all-grade AE): 2 (28.6) n (%)
  Hypophosphataemia (all-grade AE): 1 (14.3) n (%)
  Hypotension (all-grade AE): 3 (42.9) n (%)
  Maculopapular rash (all-grade AE): 2 (28.6) n (%)
  Nausea (all-grade AE): 5 (71.4) n (%)
  Oedema peripheral (all-grade AE): 2 (28.6) n (%)
  Patients with any AE (all-grade AE): 7 (100.0) n (%)
  Pneumonia (all-grade AE): 0 n (%)
  Pyrexia (all-grade AE): 0 n (%)
  Rash (all-grade AE): 1 (14.3) n (%)
  Renal failure acute (all-grade AE): 1 (14.3) n (%)
  Stomatitis (all-grade AE): 0 n (%)
  Vision blurred (all-grade AE): 0 n (%)
  Vomiting (all-grade AE): 2 (28.6) n (%)
900 mg (acute coronary syndrome, rash)
  Patients in whom AZD1208 was discontinued as a result of SAEs and AEs: 2 n
900 mg QD
  Tolerability: not tolerated
900 mg, n = 9
  Abdominal pain (all-grade AE): 1 (11.1) n (%)
  Asthenia (all-grade AE): 2 (22.2) n (%)
  Chills (all-grade AE): 2 (22.2) n (%)
  Cough (all-grade AE): 2 (22.2) n (%)
  DLT detail, action taken: Rash, drug permanently discontinued; maculopapular rash, drug permanently discontinued
  Decreased appetite (all-grade AE): 1 (11.1) n (%)
  Dehydration (all-grade AE): 4 (44.4) n (%)
  Diarrhoea (all-grade AE): 4 (44.4) n (%)
  Dyspnoea (all-grade AE): 2 (22.2) n (%)
  Fatigue (all-grade AE): 2 (22.2) n (%)
  Febrile neutropenia (all-grade AE): 3 (33.3) n (%)
  Headache (all-grade AE): 0 n (%)
  Hyperglycaemia (all-grade AE): 2 (22.2) n (%)
  Hypocalcaemia (all-grade AE): 1 (11.1) n (%)
  Hypokalaemia (all-grade AE): 2 (22.2) n (%)
  Hypomagnesaemia (all-grade AE): 1 (11.1) n (%)
  Hypophosphataemia (all-grade AE): 2 (22.2) n (%)
  Hypotension (all-grade AE): 2 (22.2) n (%)
  Maculopapular rash (all-grade AE): 1 (11.1) n (%)
  Nausea (all-grade AE): 2 (22.2) n (%)
  Oedema peripheral (all-grade AE): 2 (22.2) n (%)
  Patients with any AE (all-grade AE): 9 (100.0) n (%)
  Pneumonia (all-grade AE): 0 n (%)
  Pyrexia (all-grade AE): 3 (33.3) n (%)
  Rash (all-grade AE): 2 (22.2) n (%)
  Renal failure acute (all-grade AE): 0 n (%)
  Stomatitis (all-grade AE): 0 n (%)
  Vision blurred (all-grade AE): 0 n (%)
  Vomiting (all-grade AE): 1 (11.1) n (%)
Total N = 32
  Abdominal pain (all-grade AE): 6 (18.8) n (%)
  Asthenia (all-grade AE): 5 (15.6) n (%)
  Chills (all-grade AE): 4 (12.5) n (%)
  Cough (all-grade AE): 8 (25.0) n (%)
  Decreased appetite (all-grade AE): 4 (12.5) n (%)
  Dehydration (all-grade AE): 4 (12.5) n (%)
  Diarrhoea (all-grade AE): 14 (43.8) n (%)
  Dyspnoea (all-grade AE): 7 (21.9) n (%)
  Fatigue (all-grade AE): 10 (31.3) n (%)
  Febrile neutropenia (all-grade AE): 9 (28.1) n (%)
  Headache (all-grade AE): 4 (12.5) n (%)
  Hyperglycaemia (all-grade AE): 5 (15.6) n (%)
  Hypocalcaemia (all-grade AE): 7 (21.9) n (%)
  Hypokalaemia (all-grade AE): 7 (21.9) n (%)
  Hypomagnesaemia (all-grade AE): 7 (21.9) n (%)
  Hypophosphataemia (all-grade AE): 6 (18.8) n (%)
  Hypotension (all-grade AE): 10 (31.3) n (%)
  Maculopapular rash (all-grade AE): 4 (12.5) n (%)
  Nausea (all-grade AE): 15 (46.9) n (%)
  Oedema peripheral (all-grade AE): 9 (28.1) n (%)
  Patients with any AE (all-grade AE): 31 (96.9) n (%)
  Pneumonia (all-grade AE): 6 (18.8) n (%)
  Pyrexia (all-grade AE): 4 (12.5) n (%)
  Rash (all-grade AE): 4 (12.5) n (%)
  Renal failure acute (all-grade AE): 4 (12.5) n (%)
  Stomatitis (all-grade AE): 5 (15.6) n (%)
  Vision blurred (all-grade AE): 4 (12.5) n (%)
  Vomiting (all-grade AE): 10 (31.3) n (%)
All attributed to disease progression
  Deaths during the study: nine
All doses
  ECG abnormalities: No clinically significant ECG abnormalities
  Patients with DLTs: five
All doses, 32 patients
  AEs judged possibly related to AZD1208, patients: 68.8%
  AZD1208 discontinued as a result of SAEs and AEs, patients: 25%
  Diarrhoea possibly related to AZD1208, patients: 21.9%
  Diarrhoea, patients: 43.8%
  Fatigue possibly related to AZD1208, patients: 18.8%
  Gastrointestinal disorders AEs, patients: 87.5%
  Grade ≥3 febrile neutropenia, patients: 28.1%
  Grade ≥3 hypotension, patients: 18.8%
  Grade ≥3 pneumonia, patients: 15.6%
  Nausea possibly related to AZD1208, patients: 37.5%
  Nausea, patients: 46.9%
  Patients who experienced an AE: 96.9%
  Patients with a grade ≥3 AE: 24 n
  SAE abdominal pain, patients: 6.3%
  SAE back pain, patients: 6.3%
  SAE febrile neutropenia, patients: 25.0%
  SAE hypotension, patients: 6.3%
  SAE maculopapular rash, patients: 6.3%
  Serious AEs (SAEs), patients: 71.9%
  Treatment-related SAEs, patients: 15.6%
  Vomiting possibly related to AZD1208, patients: 18.8%
Five patients with DLTs
  Time of DLT occurrence after the start of treatment: 1 to 10 days
Heavily pretreated AML, QD oral
  Doses generally tolerated: up to 700 mg
